Measurements taken from publication PMC9953224, “Pharmacokinetic Evaluation of New Drugs Using a Multi-Labelling Approach and PET Imaging: Application to a Drug Candidate with Potential Application in Neuromuscular Disorders” (Biomedicines, 2023).

Columns and labels:
[1] = Pharmacokinetics from metabolite-corrected arterial plasma TACs after intravenous administration; assay type: in vivo, Sprague Dawley Rats
Procedure: (§1) Anaesthesia was induced with 5% isoflurane (IsoFlo®, Abbott Laboratories, Abbott Park, IL, USA) and maintained by 2% of isoflurane in 100% O2. During the experiment, rats were kept normothermic using a heating blanket (Homeothermic Blanket Control Unit; Bruker). The rat was positioned in supine position on an operating table and the two distal hind limbs were fixed forming an approximately 30° angle with the horizontal plane. The surgical region was scrubbed using Betadine, starting in the centre, and making a circular sweep outward. A skin incision was made in the femoral region. Soft tissue was dissected to expose the femoral neurovascular bundle, consisting of femoral vein, artery, and nerve. Fine tip forceps were placed between the artery, vein and nerve and were slowly opened to separate the vessels, exposing an approximately 1 cm length section of artery/vein. The vena profunda femoris was sutured to avoid retrograde bleeding via this vessel, and the sapheno-femoral junction was cauterized. A few millimetres from venatomy, a vascular clip was inserted in the direction of the catheter (to control the flow) and a suture was applied in the opposite direction (to avoid retrograde bleeding). The same operation was carried out both on the femoral vein and femoral artery. An appropriate syringe filled with 50 U/mL Heparin/physiologic saline solution was fixed at the terminus of the catheters and these were filled with heparinized saline solution. On the upper half of the vessel circumference, at a 45° angle, an incision was made and the catheter (fine bore polythene tubing: ID 0.58 mm, OD 0.98 mm) was inserted through the venotomy and advanced to the vascular clip. The vascular clip was then removed, and the catheter advanced distally towards the level of the inguinal ligament. The catheter was finally secured to the femoral vein/artery proximally and distally with 2 single knots using 4–0 braided silk suture. The catheters were connected to an in-house developed system composed by a peristaltic pump and gamma-radiation coincidence detector (Bioscan, B-FC-4100). The femoral artery catheter, the gamma detector, the peristaltic pump, and the femoral vein catheter were thus connected in series, to enable the extracorporeal circulation of blood (flow 150 μL/s from femoral artery to femoral vein) and continuous measurement of radioactivity in the blood (Figure 1).
(§2) The labelled compounds were administrated two different ways: (i) intravenous bolus infusion (ca. 37 MBq in 300 μL of saline solution was injected through the femoral vein catheter) and (ii) oral bolus administration. For oral administration, animals were fasted for 5 h. The radioactive dose (ca. 74 MBq in 300 μL of saline solution) was administered using flexible 20-gauge disposable flexible PTFE feeding needles (Fine Science Tools, F.S.T.) and a small animal Laryngoscope (Penn-Century, Model LS-2) for the correct visualization of the oesophagus. The study was conducted under no carrier added (NCA, dose adjusted to 1 μg/Kg) and carrier added (CA, dose adjusted to 5 mg/Kg) conditions. In all cases, data were imported in real time to an excel sheet using PLX-DAX add-on for Microsoft Excel (measured in volts per second).
(§3) Arterial blood samples (1 per animal) were withdrawn (see Figure 1) from the femoral artery catheter and introduced into a capillary (Microhaematocrit capillaries 75 × 1.55, Nahita). Samples were centrifuged at 11,000× g […] for 10 min and the haematocrit was determined. A second blood sample was withdrawn and the amount of radioactivity of a fixed volume (10 µL) was measured in an automatic gamma counter (2470 Wizard, PerkinElmer) to determine Cb (concentration of radioactivity in blood) and convert data imported with PLX-DAX (Volts per seconds) into Bq/s using a previously determined calibration curve. Values were then expressed as percentage of injected dose per gram of blood (% ID/g). […]

[2] = Pharmacokinetics from metabolite-corrected arterial plasma TACs after oral administration; assay type: in vivo, Sprague Dawley Rats
Procedure: as §1, §2, §3

[3] = PET biodistribution after intravenous administration; assay type: in vivo, rats; settings: 1 µg/Kg
Procedure: Rats were anesthetized by inhalation of 5% isoflurane (IsoFlo®, Abbott Laboratories, Abbott Park, IL, USA) in pure O2 and maintained by 1.5–2% isoflurane in 100% O2. During imaging, rats were kept normothermic using a heating blanket (Homeothermic Blanket Control Unit; Bruker). For intravenous administration, once the animal was under anaesthesia, one of the lateral tail veins was catheterized with a 24-gauge catheter (Introcan Certo®, Bbraun) and [^11C]AHK2.1 or [^11C]AHK2.2 was injected using saline solution as the vehicle (n = 3 for each radiolabelled compound, 26 ± 5 MBq; dose adjusted to 1 µg/Kg) concomitantly with the start of a PET dynamic acquisition. Whole body dynamic images were acquired in 4 bed positions (21 frames: 5 × 5 s per bed, 5 × 30 s per bed, 5 × 60 s per bed, 6 × 120 s per bed; total acquisition time = 79.6 min) in the 400–700 keV energetic window using an eXploreVista-CT small animal PET-CT system (GE Healthcare, Waukesha, WI, USA). After each PET scan, CT acquisitions were also performed (140 µA intensity, 40 kV voltage) to provide anatomical information of each animal as well as the attenuation map for the later reconstruction of the PET images. […] After reconstruction, PET-CT images of the same animal were co-registered and analysed using PMOD image processing tool (PMOD Technologies Ltd., Zürich, Switzerland). […]

[4] = target: T1, FKBP12 (Homo sapiens, UniProt P62942); experiment: Competitive ligand binding assay (FKBP/FRB NanoBiT luminescence protein complementation) in HEK293 cells; assay type: cell-based; settings: rapamycin 30 nM
T1 construct: host or cells: HEK293
T1 sequence (P62942 whole entry): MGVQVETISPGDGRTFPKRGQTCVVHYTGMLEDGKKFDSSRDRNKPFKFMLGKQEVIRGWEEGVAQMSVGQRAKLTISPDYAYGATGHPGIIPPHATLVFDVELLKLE
Procedure: Briefly, HEK293 (ATCC) cells were transfected with FKBP/FRB NanoBiT Control Pair (Promega, Madison, WI, USA) and kinetic measurements were performed 24 h after transfection with Nano-Glo Live Cell Reagent (Promega), as described by the manufacturer. A total of 30 nM rapamycin (Sigma-Aldrich, Madrid, Spain) and AHK2 (1 μM–10 mM) was sequentially added and each effect was recorded for 10 min. Specific activity was normalized to vehicle, and IC50 was calculated using GraphPad Prism by fitting the data to a four-parameter logistic curve.

Compound | Cp/Cb ratio (radioactivity in plasma / blood) ([1]; arterial blood, rat) | percentage of radioactivity in plasma ([1]; from Cp/Cb and haematocrit 0.44 ± 0.04) | Hill function parameter d (initial level of parent fraction) ([1]; intravenous) | Hill function parameter a (plateau of parent fraction in plasma) ([1]; intravenous, 1 µg/Kg) | Hill function parameter a (plateau of parent fraction in plasma) ([1]; intravenous, 5 mg/Kg) | Hill function parameter d (initial level of parent fraction) [2] | Hill function parameter a (plateau of parent fraction in plasma) ([2]; 1 µg/Kg) | Hill function parameter a (plateau of parent fraction in plasma) ([2]; 5 mg/Kg) | biodistribution of radioactivity in dynamic PET images [3] | induction of FKBP12/FRB dimerization (luminescence) [4]
COc1ccc(SCc2cn(CCN(C)[11CH3])nn2)cc1 [[^11C]AHK2.1] | 1.44 ± 0.2 | ca. 81% | 1 | 0.075 | 0.29 | 1 | 0.10 | 0.13 | accumulation in the gastrointestinal tract, the kidneys and the bladder | –
CN(C)CCn1cc(CSc2ccc(O[11CH3])cc2)nn1 [[^11C]AHK2.2] | – | – | – | – | – | – | – | – | rapid accumulation of radioactivity in the kidneys and elimination via urine | –
CO[C@H]1C[C@@H]2CC[C@@H](C)[C@@](O)(O2)C(=O)C(=O)N2CCCC[C@H]2C(=O)O[C@H]([C@H](C)C[C@@H]2CC[C@@H](O)[C@H](OC)C2)CC(=O)[C@H](C)/C=C(\C)[C@@H](O)[C@@H](OC)C(=O)[C@H](C)C[C@H](C)/C=C/C=C/C=C/1C [rapamycin, reference compound] | – | – | – | – | – | – | – | – | – | induced
